Where two headings read alike, the source gives them in different places.
Tests used:
human mu opioid receptor = target: T1, human mu opioid receptor (Homo sapiens, UniProt P35372); assay: Human Mu Opioid Receptor Binding Assay (CHO membranes, 3H-Damgo); settings: read-out: hKi μ
T1 construct: purchased Perkin Elmer RBHOMM400UA; host or cells: Chinese Hamster Ovary cells (recombinant expression)
Procedure, shortened: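 Radioligand displacement of ³H-Damgo (diluted to 3.6 nM pre-mix) from recombinant human mu receptor in CHO membranes, 2 h, room temperature, 50 mM Tris pH 7.5 with 5 mM MgCl2. Bound label read by filtration and scintillation counting; 1 μM unlabelled Damgo defines nonspecific binding.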

[1] = target: T2, human delta subtype 2 opioid receptor (Homo sapiens, UniProt P41143); assay: Human Delta Opioid Receptor Binding Assay (CHO membranes, 3H-Naltrindole); settings: read-out: hKi δ
T2 construct: purchased Perkin Elmer RBHODM400UA; host or cells: Chinese Hamster Ovary cells (recombinant expression)
Procedure, shortened: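 Compound displacement of tritiated naltrindole (6 nM working dilution) measured by scintillation counting after GF/C filtration. Receptor source: recombinant CHO membranes; buffer 50 mM Tris, 5 mM MgCl2, pH 7.5; 30 min room-temperature incubation. 1 μM cold naltrindole sets nonspecific binding.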

[2] = target: T3, delta opioid receptor (CHO-hδ cell membranes) (Homo sapiens, UniProt P41143); assay: Delta Opioid Receptor Functional Assay: [35S]GTPγS Binding in CHO-hδ Cell Membranes, Version 1; assay type: biochemical; settings: read-out: DOR GTP-binding Assay_v1 EC50
T3 construct: purchased Receptor Biology, Inc. (Baltimore, Md.); host or cells: CHO cells (recombinant expression)
Procedure: CHO-hδ cell membranes were purchased from Receptor Biology, Inc. (Baltimore, Md.). 10 mg/ml of membrane protein suspended in 10 mM TRIS-HC pH 7.2, 2 mM EDTA, 10% sucrose.
(§1) Membranes were maintained at 4-8° C. A portion (1 ml) of membranes was added into 15 mL cold binding assay buffer. The assay buffer contained 50 mM HEPES, pH 7.6, 5 mM MgCl2, 100 mM NaCl, 1 mM DTT and 1 mM EDTA. The membrane suspension was homogenized with a Polytron for 2 times and centrifuged at 3000 rpm for 10 min. The supernent was then centrifuged at 18,000 rpm for 20 min. The pellet was saved in a tube and 10 ml assay buffer was added into the tube. The pellet and buffer were mixed with a Polytron.
The pellet membranes (20 μg/ml) were preincubated with SPA (10 mg/ml) at 25° C. for 45 min in the assay buffer. The SPA (5 mg/ml) coupled with membranes (10 μg/ml) was then incubated with 0.5 nM [^35S]GTPγS in the same HEPES buffer containing 50 μM GDP in total volume of 200 μl. Increasing concentrations of receptor agonists were used to stimulate [^35S]GTPγS binding. The basal binding was tested in the absent agonists and no specific binding was tested in the present 10 μM unlabeled GTPγS. The data were analyzed on a Top counter.
Data The % of Basal=(stimulate−non specific)*100/(basal−non specific). EC50 values were calculated using a Prism program.

[3] = target: T4, mu opioid receptor (CHO-hMOR cell membranes) (Homo sapiens, UniProt P35372); assay: Mu Opioid Receptor Functional Assay: [35S]GTPγS Binding in CHO-hMOR Cell Membranes, Versions 1 and 2; assay type: biochemical; settings: for MOR GTP binding assay_v1 (% I): version 1, % inhibition of agonist-stimulated GTPγS binding; for MOR GTP assay_v1 % of Basal: version 1, basal binding = 100%
T4 construct: purchased Receptor Biology, Inc. (Baltimore, Md.); host or cells: CHO cells (recombinant expression)
Procedure, shortened: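 Agonist-stimulated [35S]GTPγS (0.5 nM) binding measured by SPA in human MOR CHO membranes, buffer pH 7.6 with 100 mM NaCl, 5 mM MgCl2. Antagonist mode: % inhibition of stimulation by 1 μM SNC80; agonist mode: EC50 fitted. Basal binding without agonist, non-specific with 10 μM cold GTPγS.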

[4] = system: novel environment-stressed mice; assay: In Vivo Assay-Stress-Induced Fecal Output (Fecal Output for 1 hr); design: species or system mouse; settings: 1 hr; for Fecal Output (# pellets) cpd: novel environment-stressed mice; for response vs control in vivo at 10 mg/kg / response vs control in vivo at 30 mg/kg: Mus musculus, po, 1 h
Procedure, shortened: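 Adult male Crl:CD-1(ICR) mice (˜30-35 g; at least 10 per dose group) were split into acclimated non-stressed controls, held individually for 16-18 hr in wire-mesh-bottom cages, and non-acclimated stressed groups. Mice were dosed intragastrically with vehicle or test compound in 0.5% methylcellulose, housed individually in novel cages over absorbent cardboard, and fecal pellets per mouse were counted hourly.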

delta opioid receptor = target: T5, delta opioid receptor (Rattus norvegicus, UniProt P33533); assay: Rat Brain Delta Opioid Receptor Binding Assay ([3H]DPDPE); settings: rat forebrain membranes, margin of error 10-20%, read-out: r Ki δ
T5 construct: from tissue; host or cells: forebrain of male Wistar rats
Procedure, shortened: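 Rat (male Wistar) forebrain membranes in 50 mM Tris-HCl pH 7.4 with 5 mM MgCl2, incubated with ~4 nM [3H]DPDPE for 2.5 h at 25 °C. Bound ligand collected by filtration and scintillation counting. Single-concentration data given as % inhibition of specific binding; concentration series fitted to Ki.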

mu opioid receptor = target: T6, mu opioid receptor (Rattus norvegicus, UniProt P33535); assay: Rat Brain Mu Opioid Receptor Binding Assay (and Version 2a, [3H]DAMGO); settings: rat forebrain membranes, margin of error 10-20%, read-out: r Ki μ
T6 construct: from tissue; host or cells: forebrain of male Wistar rats
Procedure, shortened: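 Displacement of the mu-selective radioligand [3H]DAMGO (0.8 nM) measured by filtration and scintillation counting after 2.5 h at 25° C. Membranes came from male Wistar rat forebrain in Tris-HCl (50 mM, pH 7.4) plus 5 mM MgCl2; Ki derived from concentration–response, % inhibition for single doses.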

[5] = target: T7, delta opioid receptor (NG108-15 cell membranes) (Mus musculus, UniProt P32300); assay: Delta Opioid Receptor Functional Assay: [35S]GTPγS Binding in NG108-15 Cell Membranes, Version 2; assay type: biochemical; settings: NG108-15 cell membranes, version 2
T7 construct: NG108-15 cell membranes were purchased from Applied Cell Sciences (Rockville, Md.); host or cells: NG108-15 cells (membranes purchased)
Procedure: NG108-15 cell membranes were purchased from Applied Cell Sciences (Rockville, Md.). 8 mg/ml of membrane protein suspended in 10 mM TRIS-HC pH 7.2, 2 mM EDTA, 10% sucrose.
as §1, with “10 ml” for “15 mL”, “Tris,” for “HEPES,”, “EGTA.” for “EDTA.”
The pellet membranes (75 μg/ml) were preincubated with SPA (10 mg/ml) at 25° C. for 45 min in the assay buffer. The SPA (5 mg/ml) coupled with membranes (37.5 μg/ml) was then incubated with 0.1 nM [^35S] GTPγS in the same Tris buffer containing 100 μM GDP in total volume of 200 μl. Increasing concentrations of receptor agonists were used to stimulate [^35S] GTPγS binding. The basal binding was tested in the absent agonists and no specific binding was tested in the present 10 μM unlabeled GTPγS. The data were analyzed on a Top counter.
[formula] % Inhibition=(% stimulation by 1 μM SNC80−% stimulation by 1 μM SNC80 in presence of test compound)×100/(% Stimulation by 1 μM SNC80−100) % of Basal=(stimulate−non specific)*100/(basal−non specific). EC50 values were calculated using GraphPad Prism.

male CD-1 mice = assay: In Vivo Assay: Upper GI Tract Transit (MUGIT); settings: Mus musculus, po, 1 h, dose 30 (mg), p.o., read-out: upper GI transit (% ctrl)
Procedure: Methods: The animals used in these studies were male CD-1 mice, ave. wt. ˜30 g. Mice were housed under 12 h/12 h light/dark cycle, food & water ad lib. On the day of the experiment mice were assigned to experimental groups, including one vehicle-only group (=control). At 30 min before administration of carmine dye, animals were dosed with vehicle or vehicle-plus-compound, mice were returned to their home cages after drug administration. After administration of carmine, the animals were either returned to their home cages (non-stressed) or individually placed in the same metal cages as used in the fecal output or entire GI tract transit to induce a novel environment stress. One hour after administration of carmine, mice were sacrificed by cervical dislocation, the abdomen opened midventrally, the small intestine from pylorus to cecum was removed, the mesentery divided in order to lay the intestine straight & flat—without stretching. The total length of intestine and the length of carmine-dyed intestine were measured in order to determine the percent of the upper GI tract over which transit had occurred as follows: {(Length of carmine-dyed intestine)/(Total length of intestine)}×100=% upper GI transit. The data expressed were group means±SD (or s.e.m.) and data expressed as % of control.

T5 sequence (P33533 whole entry): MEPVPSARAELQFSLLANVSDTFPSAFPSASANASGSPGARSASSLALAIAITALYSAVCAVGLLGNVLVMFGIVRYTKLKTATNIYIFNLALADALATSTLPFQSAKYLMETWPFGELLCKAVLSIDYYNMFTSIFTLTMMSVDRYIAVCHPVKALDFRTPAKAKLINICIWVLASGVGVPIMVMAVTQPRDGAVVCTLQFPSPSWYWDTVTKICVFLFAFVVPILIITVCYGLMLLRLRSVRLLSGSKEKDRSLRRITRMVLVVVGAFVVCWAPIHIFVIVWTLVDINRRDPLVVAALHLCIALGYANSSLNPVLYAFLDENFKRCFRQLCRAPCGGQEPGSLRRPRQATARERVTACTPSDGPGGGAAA
T6 sequence (P33535 whole entry): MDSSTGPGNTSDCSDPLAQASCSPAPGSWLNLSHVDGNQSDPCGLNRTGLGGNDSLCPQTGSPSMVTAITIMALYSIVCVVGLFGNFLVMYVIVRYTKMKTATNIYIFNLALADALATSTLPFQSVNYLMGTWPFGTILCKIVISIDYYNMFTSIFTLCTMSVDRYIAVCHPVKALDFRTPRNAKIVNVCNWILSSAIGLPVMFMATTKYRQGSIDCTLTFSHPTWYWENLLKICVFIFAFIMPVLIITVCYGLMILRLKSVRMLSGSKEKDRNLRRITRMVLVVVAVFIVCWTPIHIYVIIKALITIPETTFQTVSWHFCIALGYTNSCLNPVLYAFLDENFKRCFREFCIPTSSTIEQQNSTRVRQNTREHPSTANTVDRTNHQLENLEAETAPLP
T3 sequence (P41143 whole entry): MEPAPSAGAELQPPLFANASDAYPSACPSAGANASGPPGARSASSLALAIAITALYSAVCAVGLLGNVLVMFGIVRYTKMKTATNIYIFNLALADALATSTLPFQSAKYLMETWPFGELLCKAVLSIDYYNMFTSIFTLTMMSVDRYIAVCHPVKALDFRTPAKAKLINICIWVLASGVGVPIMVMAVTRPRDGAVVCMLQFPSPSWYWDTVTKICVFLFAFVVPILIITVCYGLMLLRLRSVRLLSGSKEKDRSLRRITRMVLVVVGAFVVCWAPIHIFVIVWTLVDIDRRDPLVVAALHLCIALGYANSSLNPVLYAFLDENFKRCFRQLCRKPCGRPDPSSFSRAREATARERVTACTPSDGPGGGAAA
T2 sequence (P41143 whole entry): as above
T4 sequence (P35372 whole entry): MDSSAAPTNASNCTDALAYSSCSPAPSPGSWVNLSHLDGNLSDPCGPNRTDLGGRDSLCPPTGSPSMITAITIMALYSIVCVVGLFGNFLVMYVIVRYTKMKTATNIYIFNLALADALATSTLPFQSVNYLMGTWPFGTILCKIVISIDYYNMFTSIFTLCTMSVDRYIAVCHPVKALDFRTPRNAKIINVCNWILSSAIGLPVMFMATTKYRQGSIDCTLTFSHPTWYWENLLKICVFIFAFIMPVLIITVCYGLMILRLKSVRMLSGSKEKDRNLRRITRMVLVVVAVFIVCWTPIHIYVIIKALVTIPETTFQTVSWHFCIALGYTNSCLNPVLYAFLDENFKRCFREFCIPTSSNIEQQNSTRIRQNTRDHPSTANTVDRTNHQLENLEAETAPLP
T1 sequence (P35372 whole entry): as above
T7 sequence (P32300 whole entry): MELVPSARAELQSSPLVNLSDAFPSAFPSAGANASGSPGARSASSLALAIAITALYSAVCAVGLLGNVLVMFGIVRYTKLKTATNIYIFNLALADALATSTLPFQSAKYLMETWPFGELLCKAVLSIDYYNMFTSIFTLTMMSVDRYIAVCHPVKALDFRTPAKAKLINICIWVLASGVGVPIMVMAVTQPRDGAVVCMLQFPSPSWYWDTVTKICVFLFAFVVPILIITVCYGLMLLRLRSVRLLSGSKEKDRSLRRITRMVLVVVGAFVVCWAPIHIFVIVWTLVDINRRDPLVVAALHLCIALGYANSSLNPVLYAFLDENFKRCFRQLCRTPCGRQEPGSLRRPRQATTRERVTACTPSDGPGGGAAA

Cc1cc(O)cc(C)c1C[C@H](N)C(=O)N(Cc1nc(-c2cncnc2)c(C)[nH]1)C(C)C [Cpd 131]
Ki (human mu opioid receptor): 3.1 nM
Ki [1]: 675 nM
EC50 [2]: 99 nM
MOR GTP binding assay_v1 (% I) [3]: 28.64%
MOR GTP assay_v1 % of Basal [3]: 391.98%

Cc1cc(C(N)=O)cc(C)c1C[C@H](N)C(=O)N(C)[C@@H](C)c1nc(-c2ccccc2)c[nH]1 [Cpd 196]
EC50 [2]: 24 nM
MOR GTP binding assay_v1 (% I) [3]: 1.00%
MOR GTP assay_v1 % of Basal [3]: 620.00%
Fecal Output (# pellets) cpd ([4]; 10 mg/kg oral): 9.2 pellets
Fecal Output (# pellets) cpd ([4]; 30 mg/kg oral): 4.3 pellets
response vs control in vivo at 10 mg/kg ([4]; 10 mg/kg oral, relative to acclimated control, read-out: Fecal Output cpd % control): 249%
response vs control in vivo at 10 mg/kg ([4]; 10 mg/kg oral, relative to novel environment stress (NES) vehicle group, read-out: Fecal Output cpd % NES): 65.7%
response vs control in vivo at 30 mg/kg ([4]; 30 mg/kg oral, relative to acclimated control, read-out: Fecal Output cpd % control): 391%
response vs control in vivo at 30 mg/kg ([4]; 30 mg/kg oral, relative to novel environment stress (NES) vehicle group, read-out: Fecal Output cpd % NES): 45.3%

Cc1cc(O)cc(C)c1C[C@H](N)C(=O)N(Cc1nc(-c2ccccc2C(F)(F)F)c(C)[nH]1)C(C)C [Cpd 151]
Ki [1]: 1300 nM
EC50 [2]: 350 nM
MOR GTP binding assay_v1 (% I) [3]: 24.19%
MOR GTP assay_v1 % of Basal [3]: 606.38%

Cc1cc(O)cc(C)c1C[C@H](N)C(=O)N(Cc1nc(-c2ccc(C(F)(F)F)cc2)c(C)[nH]1)C(C)C [Cpd 149]
Ki [1]: 408 nM
EC50 [2]: 44 nM
MOR GTP binding assay_v1 (% I) [3]: 1.00%
MOR GTP assay_v1 % of Basal [3]: 753.53%

C[C@@H](c1nc(-c2ccccc2)c[nH]1)N(C)C(=O)[C@@H](N)Cc1ccc(C(N)=O)cc1 [Cpd 202]
Ki (delta opioid receptor): 31.5 nM
Ki (mu opioid receptor): 5.9 nM
EC50 [2]: 1580 nM
MOR GTP binding assay_v1 (% I) [3]: 1.00%
MOR GTP assay_v1 % of Basal [3]: 529.00%

Cc1cc(O)cc(C)c1C[C@H](N)C(=O)N(Cc1nc(-c2ccc3ccccc3c2)c(C)[nH]1)C(C)C [Cpd 150]
Ki [1]: 992 nM
EC50 [2]: 49 nM
MOR GTP binding assay_v1 (% I) [3]: 53.35%
MOR GTP assay_v1 % of Basal [3]: 476.63%

Cc1cc(O)cc(C)c1C[C@H](N)C(=O)N(Cc1nc(-c2ccccc2Cl)c(C)[nH]1)C(C)C [Cpd 155]
Ki [1]: 345 nM
EC50 [2]: 150 nM
MOR GTP binding assay_v1 (% I) [3]: 14.32%
MOR GTP assay_v1 % of Basal [3]: 655.93%

Cc1cc(O)cc(C)c1C[C@H](N)C(=O)N(Cc1nc(-c2ccccc2F)c(C)[nH]1)C(C)C [Cpd 117]
Ki (human mu opioid receptor): 0.24 nM
Ki [1]: 118 nM
EC50 [2]: 37 nM
MOR GTP binding assay_v1 (% I) [3]: 3.31%
MOR GTP assay_v1 % of Basal [3]: 816.16%

CCN(C(=O)[C@@H](N)Cc1c(C)cc(C(N)=O)cc1C)[C@@H](C)c1nc(-c2ccccc2)c[nH]1 [Cpd 197]
Ki (delta opioid receptor): 4.27 nM
Ki (mu opioid receptor): 0.9 nM
EC50 [2]: 140 nM
MOR GTP binding assay_v1 (% I) [3]: 1.00%
MOR GTP assay_v1 % of Basal [3]: 582.00%

CCN(C(=O)[C@@H](N)Cc1c(C)cc(O)cc1C)[C@H](c1nc(-c2ccccc2)c[nH]1)C(C)C [Cpd 170]
Ki (delta opioid receptor): 32.6 nM
Ki (mu opioid receptor): 0.48 nM
EC50 [2]: 115 nM
MOR GTP binding assay_v1 (% I) [3]: 26.00%

Cc1cc(O)cc(C)c1C[C@H](N)C(=O)N(Cc1ccc(C(=O)O)o1)[C@@H](C)c1nc(-c2ccccc2)c[nH]1 [Cpd 287]
Ki (delta opioid receptor): 0.14 nM
Ki (mu opioid receptor): 0.13 nM
EC50 ([5]; [35S]GTPγS, read-out: DOR GTP-binding Assay_v2_ EC50): > 10000 nM
DOR GTP-binding Assay v2 (% I) ([5]; % inhibition of agonist-stimulated GTPγS binding): 84.50%
response vs control in vivo at 30 mg (male CD-1 mice): 66.4%

Cc1cc(O)cc(C)c1C[C@H](N)C(=O)N(Cc1nc(-c2ccc(Cl)cc2)c(C)[nH]1)C(C)C [Cpd 147]
Ki [1]: 241 nM
EC50 [2]: 51 nM
MOR GTP binding assay_v1 (% I) [3]: 1.00%
MOR GTP assay_v1 % of Basal [3]: 779.35%

Cc1cc(O)cc(C)c1C[C@H](N)C(=O)N(Cc1nc(-c2ccsc2)c(C)[nH]1)C(C)C [Cpd 146]
Ki [1]: 71 nM
EC50 [2]: 27 nM
MOR GTP binding assay_v1 (% I) [3]: 2.79%
MOR GTP assay_v1 % of Basal [3]: 740.77%

Cc1cc(O)cc(C)c1C[C@H](N)C(=O)N(Cc1nc(-c2cccc(CO)c2)c(C)[nH]1)C(C)C [Cpd 130]
Ki (human mu opioid receptor): 1.6 nM
Ki [1]: 712 nM
EC50 [2]: 16 nM
MOR GTP binding assay_v1 (% I) [3]: 1.62%
MOR GTP assay_v1 % of Basal [3]: 866.39%

Source: patent publication US10213415B2, “Compounds as opioid receptor modulators” (JANSSEN PHARMACEUTICA NV, priority 2004, dated 2019)
